We go through 32 compounds from patent US8383683B2, “Pharmaceutical use of substituted amides” (High Point Pharmaceuticals, LLC, priority 2007, dated 2013).

Sequence of 11βHSD1 (P28845 whole entry): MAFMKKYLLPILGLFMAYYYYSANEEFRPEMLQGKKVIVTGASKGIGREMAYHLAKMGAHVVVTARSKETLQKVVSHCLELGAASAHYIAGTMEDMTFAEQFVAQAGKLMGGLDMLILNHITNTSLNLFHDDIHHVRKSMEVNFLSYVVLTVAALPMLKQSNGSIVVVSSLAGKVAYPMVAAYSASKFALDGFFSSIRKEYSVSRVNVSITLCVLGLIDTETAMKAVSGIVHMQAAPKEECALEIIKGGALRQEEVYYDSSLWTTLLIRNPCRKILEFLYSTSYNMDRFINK

The assay concerns the target 11βHSD1 (Homo sapiens, UniProt P28845). Nature of the assay: 11βHSD1 enzyme assay (SPA, 3H-cortisone to 3H-cortisol). The following applies: extract of yeast transformed with h-11βHSD1; 120 nM 3H-cortisone, 4 mM β-NADPH, 60 min at 30° C. On the set-up: An extract of yeast transformed with h-11βHSD1 (Hutt et al., FEBS Lett., 441, 25 (1998)) was used as the source of enzyme; made in house. The assay is classed as biochemical. As to the method: Pharmacological Methods 11βHSD1 Enzyme Assay Materials
^3H-cortisone and anti-rabbit Ig coated scintillation proximity assay (SPA) beads were purchased from Amersham Pharmacia Biotech, β-NADPH was from Sigma and rabbit anti-cortisol antibodies were from Fitzgerald. An extract of yeast transformed with h-11βHSD1 (Hutt et al., FEBS Lett., 441, 25 (1998)) was used as the source of enzyme. The test compounds were dissolved in DMSO (10 mM). All dilutions were performed in a buffer containing 50 mM TRIS-HCl (Sigma Chemical Co), 4 mM EDTA (Sigma Chemical Co), 0.1% BSA (Sigma Chemical Co), 0.01% Tween-20 (Sigma Chemical Co) and 0.005% bacitracin (Novo Nordisk NS), pH=7.4. Optiplate 96 wells plates were supplied by Packard. The amount of ^3H-cortisol bound to the SPA beads was measured on TopCount NXT, Packard.
h-11βHSD1, 120 nM ^3H-cortisone, 4 mM β-NADPH, antibody (1:200), serial dilutions of test compound and SPA particles (2 mg/well) were added to the wells. The reaction was initiated by mixing the different components and was allowed to proceed under shaking for 60 min at 30° C. The reaction was stopped be the addition of 10 fold excess of a stopping buffer containing 500 μM carbenoxolone and 1 μM cortisone. Data was analysed using GraphPad Prism software.
A word on the IC50: it is the concentration at which inhibition is half-maximal. The compound `O=C(CCCOc1ccc(Cl)cc1Cl)NC1C2CC3CC1CC(O)(C3)C2` (centres unmarked) [Example 1-27, 4-(2,4-Dichloro-phenoxy)-N-(5-hydroxy-adamantan-2-yl)-butyramide] had a half-maximal inhibitory concentration (IC50) of 4 nM.

As for `O=C(CCCOc1ccc(Cl)cc1Cl)NC12CC3CC(CC(CO)(C3)C1)C2` [Example 1-28, 4-(2,4-Dichloro-phenoxy)-N-(3-hydroxy-methyl-adamantan-1-yl)-butyramide], the IC50 came out at 1 nM.

`O=C(CCCOc1ccc(Cl)cc1Cl)N1CC2CCC1C2O` (centres unmarked) [Example 1-29, 4-(2,4-Dichloro-phenoxy)-1-(7-hydroxy-2-aza-bicyclo[2.2.1]hept-2-yl)-butan-1-one] gave a half-maximal inhibitory concentration (IC50) of 14 nM.

In turn, `COC(=O)C12CC3CC(CC(NC(=O)CCCOc4ccc(Cl)cc4Cl)(C3)C1)C2` [Example 1-30, 3-[4-(2,4-Dichloro-phenoxy)-butyrylamino]-adamantane-1-carboxylic acid methyl ester] gave a half-maximal inhibitory concentration (IC50) of 10 nM.

In turn, `O=C(CCCOc1ccc(Cl)cc1Cl)NC12CC3CC(C1)CC(C(=O)O)(C3)C2` [Example 1-31, 3-[4-(2,4-Dichloro-phenoxy)-butyrylamino]-adamantane-1-carboxylic acid] showed an IC50 of 11 nM.

As for `CN(C(=O)CCCOc1ccc(Cl)cc1Cl)C1C2CC3CC1CC(O)(C3)C2` (centres unmarked) [Example 1-32, 4-(2,4-Dichloro-phenoxy)-N-(5-hydroxy-adamantan-2-yl)-N-methyl-butyramide], the half-inhibitory concentration (IC50) was 4 nM. This IC50 lies about 2.8-fold lower than the previous one.

Consider `CCN(C(=O)CCCOc1ccc(Cl)cc1Cl)C1C2CC3CC1CC(O)(C3)C2` (centres unmarked) [Example 1-33, 4-(2,4-Dichloro-phenoxy)-N-ethyl-N-(5-hydroxy-adamantan-2-yl)-butyramide], for which the IC50 stood at 7 nM.

`CCN(C(=O)CCCOc1ccc(Cl)cc1Cl)C1C2CC3CC1CC(O)(C3)C2` (centres unmarked) [Example 1-34, 4-(2,4-Dichloro-phenoxy)-N-ethyl-N-(5-hydroxy-adamantan-2-yl)-butyramide] had an IC50 of 172 nM.

On to `O=C(CCCOc1ccc(Cl)cc1Cl)N1CC2CCC(C1)C2O` (centres unmarked) [Example 1-35, 4-(2,4-Dichloro-phenoxy)-1-(8-hydroxy-3-aza-bicyclo[3.2.1]oct-3-yl)-butan-1-one], for which it took 252 nM to reach half-maximal inhibition (IC50).

In the case of `O=C(CCCOc1ccc(Cl)cc1Cl)N1CC2CCC1CC2O` (centres unmarked) [Example 1-36, 4-(2,4-Dichloro-phenoxy)-1-(5-hydroxy-2-aza-bicyclo[2.2.2]oct-2-yl)-butan-1-one], the half-inhibitory concentration (IC50) amounted to 397 nM.

The compound `CN(C(=O)CCCOc1ccccc1)C1CCC(O)CC1` (centres unmarked) [Example 1-37, N-(4-Hydroxy-cyclohexyl)-N-methyl-4-phenoxy-butyramide] came in with an IC50 of 1820 nM.

`O=C(CCCOc1ccccc1)NC1C2CC3CC1CC(O)(C3)C2` (centres unmarked) [Example 1-39, N-(5-Hydroxy-adamantan-2-yl)-4-phenoxy-butyramide] returned an IC50 of 50 nM.

Turning to `CN(C(=O)CCCOc1ccccc1)C1C2CC3CC1CC(O)(C3)C2` (centres unmarked) [Example 1-42, N-(5-Hydroxy-adamantan-2-yl)-N-methyl-4-phenoxy-butyramide], 1340 nM corresponded to half-maximal inhibition (IC50).

The compound `CN(C(=O)CCCOc1ccccc1)C1C2CC3CC1CC(O)(C3)C2` (centres unmarked) [Example 1-43, N-(5-Hydroxy-adamantan-2-yl)-N-methyl-4-phenoxy-butyramide] yielded an IC50 of 58 nM.

Compound `O=C(CCCOc1ccccc1)NC12CC3CC(CC(CO)(C3)C1)C2` [Example 1-45, N-(3-Hydroxymethyl-adamantan-1-yl)-4-phenoxy-butyramide] came in with a half-inhibitory concentration (IC50) of 9 nM.

Turning to `O=C(CCCOc1ccccc1)N1CC2CC1CC2O` (centres unmarked) [Example 1-46, 1-(5-Hydroxy-2-aza-bicyclo[2.2.1]hept-2-yl)-4-phenoxy-butan-1-one], the IC50 came to 1510 nM.

With `O=C(CCCOc1ccccc1)N1CC2CCC1C2O` (centres unmarked) [Example 1-48, 1-(7-Hydroxy-2-aza-bicyclo[2.2.1]hept-2-yl)-4-phenoxy-butan-1-one], 1080 nM corresponded to half-maximal inhibition (IC50).

In the case of `CC(C)N(C(=O)CCCOc1ccccc1)C1C2CC3CC1CC(O)(C3)C2` (centres unmarked) [Example 1-49, N-(5-Hydroxy-adamantan-2-yl)-N-isopropyl-4-phenoxy-butyramide], the IC50 was 141 nM.

As to `CCN(C(=O)CCCOc1ccccc1)C1C2CC3CC1CC(O)(C3)C2` (centres unmarked) [Example 1-51, N-Ethyl-N-(5-hydroxy-adamantan-2-yl)-4-phenoxy-butyramide], the IC50 came to 61 nM.

Compound `COC(=O)C12CC3CC(CC(NC(=O)CCCOc4ccccc4)(C3)C1)C2` [Example 1-52, 3-(4-Phenoxy-butyryl-amino)-adamantane-1-carboxylic acid methyl ester] gave a half-maximal inhibitory concentration (IC50) of 54 nM.

On to `O=C(CCCOc1ccccc1)NC12CC3CC(C1)CC(C(=O)O)(C3)C2` [Example 1-53, 3-(4-Phenoxy-butyryl-amino)-adamantane-1-carboxylic acid], for which inhibition was half-maximal at 194 nM (IC50).

In turn, `O=C(CCCOc1ccccc1)NC1C2CC3CC1CC(CO)(C3)C2` (centres unmarked) [Example 1-54, N-(5-Hydroxymethyl-adamantan-2-yl)-4-phenoxy-butyramide] gave an IC50 of 10 nM. This IC50 is about 19-fold lower than that of the compound before.

For `O=C(CCCOc1ccc(Cl)cc1Cl)NC1C2CC3CC1CC(CO)(C3)C2` (centres unmarked) [Example 1-55, 4-(2,4-Dichloro-phenoxy)-N-(5-hydroxy-methyl-adamantan-2-yl)-butyramide], the IC50 was 2 nM. This IC50 lies about 5-fold lower than the previous one.

`CC(C)N(C(=O)CCCOc1ccc(Cl)cc1Cl)C1C2CC3CC1CC(O)(C3)C2` (centres unmarked) [Example 1-56, 4-(2,4-Dichloro-phenoxy)-N-(5-hydroxy-adamantan-2-yl)-N-isopropyl-butyramide] gave an IC50 of 322 nM.

Turning to `CN(C(=O)CCCOc1ccc(Cl)cc1Cl)[C@H]1CCCC[C@@H]1O` [Example 1-57, 4-(2,4-Dichloro-phenoxy)-N-((1S,2S)-2-hydroxy-cyclohexyl)-N-methyl-butyramide], the IC50 stood at 628 nM.

Consider `CN(C(=O)CCCOc1ccc(Cl)cc1Cl)C1CCCC(C(=O)O)C1` (centres unmarked) [Example 1-58, 3-{[4-(2,4-Dichloro-phenoxy)-butyryl]-methyl-amino}-cyclo-hexanecarboxylic acid], for which inhibition was half-maximal at 55 nM (IC50). Compared with the last compound, the IC50 is about 11-fold lower.

With `CN(C(=O)CCCOc1ccc(Cl)cc1Cl)C1CCCC(CO)C1` (centres unmarked) [Example 1-59, 4-(2,4-Dichloro-phenoxy)-N-(3-hydroxy-methyl-cyclo-hexyl)-N-methyl-butyramide], half-maximal inhibition (IC50) required 3 nM.

As for `CN(C(=O)CCCOc1ccc(Cl)cc1Cl)C1CCC(CO)CC1` (centres unmarked) [Example 1-60, 4-(2,4-Dichloro-phenoxy)-N-(4-hydroxy-methyl-cyclohexyl)-N-methyl-butyramide], the 50% inhibitory concentration (IC50) was 1 nM. Against the preceding compound, the IC50 is about 3-fold lower.

`CN(C(=O)CCCOc1ccc(Cl)cc1Cl)C1CCCC(O)C1` (centres unmarked) [Example 1-61, 4-(2,4-Dichloro-phenoxy)-N-(3-hydroxy-cyclohexyl)-N-methyl-butyramide]: the IC50 turned out to be 56 nM.

In turn, `CN(C(=O)CCCOc1ccc(Cl)cc1Cl)[C@H]1CCCC[C@@H]1CO` [Example 1-62, 4-(2,4-Dichloro-phenoxy)-N-((S)-2-hydroxymethyl-cyclo-hexyl)-N-methyl-butyramide] yielded an IC50 of 123 nM.

As to `CN(C(=O)CCCOc1ccc(Cl)cc1Cl)C1CC2CC1CC2O` (centres unmarked) [Example 1-64, 4-(2,4-Dichloro-phenoxy)-N-(5-hydroxy-bicyclo[2.2.1]hept-2-yl)-N-methyl-butyramide], the half-inhibitory concentration (IC50) amounted to 2 nM.

Compound `CN(C(=O)CCCOc1ccc(Cl)cc1Cl)C1C2CC3CC1CC(CO)(C3)C2` (centres unmarked) [Example 1-65, 4-(2,4-Dichloro-phenoxy)-N-(5-hydroxy-methyl-adamantan-2-yl)-N-methyl-butyramide] showed an IC50 of 4 nM.
